The text below walks through data of patent publication US20250213482A1, “OXYGEN-ENHANCED ADAPTIVE FUNCTIONAL BEVERAGE FOR ANTI-AGING AND METHOD OF PREPARATION” (priority 2025, published 2025).

A short description of data set [1]: PQQ supplementation over an 8-week period. In kind it is in vivo. As to conditions: 8-week period of supplementation. An excerpt:
In another embodiment, PQQ supplementation promotes mitochondrial biogenesis and boosts oxidative metabolism, resulting in increased energy production. […] PQQ acts as a potent antioxidant, reducing oxidative stress by neutralizing harmful free radicals and lowering inflammation. By protecting neurons from oxidative damage, PQQ supplementation contributes to improved cognitive performance, including enhanced memory, attention, and mental clarity.

Data set [2] in a line: daily intake of NMN for 90 days, long-term safety. Format: in vivo. As to conditions: 500 mg daily for 90 days.

Molecules are shown by their SMILES.

As for `O=C(O)c1cc(C(=O)O)c2c(n1)C(=O)C(=O)c1cc(C(=O)O)[nH]c1-2` [PQQ, pyrroloquinoline quinone], in data set [1], the cognitive function entry was “enhances cognitive function” and the oxidative stress entry is reported as “reduces oxidative stress”.

Consider `NC(=O)c1ccc[n+]([C@@H]2O[C@H](COP(=O)([O-])O)[C@@H](O)[C@H]2O)c1` [NMN, nicotinamide mononucleotide], for which, in data set [2], the “impact on blood sugar, liver function, or kidney function” value is on record as “no impact on blood sugar, liver function, or kidney function”.
